Experimental data as given in patent publication US3965109A, “Certain aryl amino pyridines” (priority 1971, dated 1976).
Like-named read-outs stand apart in the source and are kept apart here.

Experiments:
[1] = tested on: Plutella maculipennis (diamond back moth larvae); experiment: Pest toxicity test; type: in vivo; settings: in vivo
Xanthomonas oryzae = type: cell-based; settings: 50 ppm; 5 days
Pseudomonas syringae = experiment: Antibacterial agar test (B6); type: cell-based; settings: 50 ppm; 5 days
Erwinia carotovora = experiment: Antibacterial agar test (B4); type: cell-based; settings: 50 ppm; 5 days
[2] = tested on: Phaedon cochleariae (mustard beetles); experiment: Pest toxicity test; type: in vivo; settings: in vivo
[3] = tested on: Corynebacterium michiganense; experiment: Antibacterial agar test (B2); type: cell-based; settings: 50 ppm; 5 days
Summary of the method: (§1)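 Compound was dissolved or suspended in acetone and mixed into nutrient agar to 50 ppm final, then dried overnight in Petri dishes. Plates were inoculated with the bacteria via multipoint inoculator and antibacterial activity was graded after 5 days.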

[4] = tested on: Aedes aegypti (mosquito adults); experiment: Pest toxicity test; type: in vivo; settings: 0.01% by weight; plywood; 1 day
Aphis fabae = experiment: Pest toxicity test; type: in vivo; settings: 0.1% by weight; broad bean; 2 days
Xanthomonas malvacearum = experiment: Antibacterial agar test (B3); type: cell-based; settings: 50 ppm; 5 days
Summary of the method: as §1

[5] = tested on: Pieris brassicae (cabbage white caterpillars); experiment: Pest toxicity test; type: in vivo; settings: 0.1% by weight, 2 days
[6] = tested on: Puccinia recondita (wheat); experiment: Fungicidal test against foliar disease A (foliage spray plus soil drench); type: in vivo; settings: 10 days
[7] = tested on: Venturia inaequalis (apple); experiment: Fungicidal test against foliar disease G (foliage spray plus soil drench); type: in vivo; settings: 21 days
Experimental: This Example illustrates the fungicidal properties of compounds used as active ingredients in the compositions of the invention. The compounds were tested against a wide variety of foliar fungal diseases of plants. In the test, a composition comprising an aqueous solution or suspension of the test compound was sprayed on to the foliage or uninfected plants; the soil in which the plants were growing was also drenched with the composition. The compositions used for spraying and drencing contained 100 parts per million (ppm.) of the test compound except where otherwise stated in the table of results below. After spraying and drenching, the plants were then exposed to infection with the diseases it was desired to control, along with control plants not treated with the compound. After a period of days, depending upon the particular disease, the extent of the disease was visually assessed, as a percentage of the disease established upon the control plants which had not been treated with the compound under test, according to the grading scheme below
In Table 2 below the names of the disease is given in the first column, and in the second column is given the time which elapsed between exposing the plants to infection and assessing the amount of disease.

Streptomyces scabies = experiment: Antibacterial agar test (B7); type: cell-based; settings: 50 ppm; 5 days
Megoura viceae = experiment: Pest toxicity test; type: in vivo; settings: 0.1% by weight; broad bean; 2 days
[8] = tested on: Agrobacterium tumifaciens; experiment: Antibacterial agar test (B1); type: cell-based; settings: 50 ppm; 5 days
[9] = tested on: Aedes aegypti (mosquito larvae); experiment: Pest toxicity test; type: in vivo; settings: 0.01% by weight; water; 1 day
[10] = tested on: Musca domestica (houseflies); experiment: Pest toxicity test, contact test; type: in vivo; settings: 0.1% by weight; milk/sugar; 2 days; flies sprayed directly
[11] = tested on: Plasmopara viticola (vine); experiment: Fungicidal test against foliar disease C (foliage spray plus soil drench); type: in vivo; settings: 10 days
[12] = tested on: Tetranychus telarius (red spider mites, eggs); experiment: Pest toxicity test; type: in vivo; settings: 0.1% by weight; French bean; 3 days
[13] = tested on: Tetranychus telarius (red spider mites, adults); experiment: Pest toxicity test; type: in vivo; settings: 0.1% by weight; French bean; 3 days
[14] = tested on: Piricularia oryzae (rice); type: in vivo; settings: 7 days
Uncinula necator (vine) = experiment: Fungicidal test against foliar disease D (foliage spray plus soil drench); type: in vivo; settings: 10 days; for Amount of disease grading, disease D (Table 4): 100 ppm spray and drench
[15] = tested on: Meloidogyne incognita (nematodes); experiment: Pest toxicity test; type: in vivo; settings: 0.01% by weight; water; 1 day
Tomato = experiment: Herbicidal test, pre- and post-emergence; type: in vivo; settings: 10 kg/ha; scale 0 to 3 (complete kill)
Lettuce = experiment: Herbicidal test, pre- and post-emergence; type: in vivo; settings: 10 kg/ha; scale 0 to 3 (complete kill)
[16] = tested on: Agriolimax reticulatus (slugs); experiment: Molluscicidal activity test; type: in vivo, Agriolimax reticulatus (Mull); settings: pellet with 4% by weight; 6 days; 10°C
Summary of the method: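 Compound was applied to a calf feeding pellet at 4% by weight active ingredient after 24 h air drying. Two replicates, each of 2 slugs starved 24 h, were kept with a moist filter paper at 10°C, and kill was assessed after 6 days.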

Wheat = experiment: Herbicidal test, pre- and post-emergence; type: in vivo; settings: 10 kg/ha; scale 0 to 3 (complete kill)
Maize = experiment: Herbicidal test, pre- and post-emergence; type: in vivo; settings: 10 kg/ha; scale 0 to 3 (complete kill)
[17] = tested on: Phytophthora infestans (tomato); type: in vivo; settings: 3 days
[18] = tested on: larvae of the blowfly (Lucilia serrata); experiment: Insecticidal test on blowfly larvae on treated filter paper; type: in vivo; set-up: key: 5 represents inseccticidal activity equal to that of the known insecticide; 6 represents activity 10 times that of the standard; settings: scale of 1 to 6; filter paper with horse serum
[19] = 50 ppm spray + 200 ppm soil drench

SMILES | Mortality grading (kill) [1] | Antibacterial activity grading B5 (Xanthomonas oryzae) | Antibacterial activity grading B6 (Pseudomonas syringae) | Antibacterial activity grading B4 (Erwinia carotovora) | Mortality grading (kill) [2] | Antibacterial activity grading B2 [3] | Mortality grading (kill) [4] | Mortality grading (kill) (Aphis fabae) | Antibacterial activity grading B3 (Xanthomonas malvacearum) | Mortality grading (kill) [5] | Antibacterial activity grading B7 (Streptomyces scabies) | Mortality grading (kill) (Megoura viceae) | Antibacterial activity grading B1 [8] | Mortality grading (kill) [9] | Mortality grading (kill), contact test [10] | Mortality grading (kill) [12] | Mortality grading (kill) [13] | Amount of disease grading, disease D (Table 4) (Uncinula necator (vine)) | Mortality grading (kill) [15] | Damage to plants, post-emergence (Tomato) | other results
COc1nc(F)c(Cl)c(Nc2c(F)c(F)c(C#N)c(F)c2F)c1Cl [Compound 21, 2-Fluoro-3,5-dichloro-6methoxy-4(4-cyano-2,3,5,6-tetrafluoroanilino)pyridine] | 1 (key: O represents less than 30% kill; 1 represents 30 - 49% kill; 2 represents 60 - 90% kill; 3 represents over 90% kill; C indicates a chemosterilant effect.; A indicates an antifeeding effect.) | 2 (6 to 25) | 3 (0 to 5) | 3 (0 to 5) | 0 (key: O represents less than 30% kill; 1 represents 30 - 49% kill; 2 represents 60 - 90% kill; 3 represents over 90% kill; C indicates a chemosterilant effect.; A indicates an antifeeding effect.) | 3 (0 to 5) | 0 (O represents less than 30% kill) | 0 (O represents less than 30% kill) | 3 (0 to 5) | 0 (O represents less than 30% kill) | 3 (0 to 5) | 0 (O represents less than 30% kill) | 2 (6 to 25) | 3 (3 represents over 90% kill) | 2 (2 represents 60 - 90% kill) | 0 (O represents less than 30% kill) | 0 (O represents less than 30% kill) | – | – | – | Amount of disease grading, disease A ([6]; 100 ppm spray and drench): 3 (0 to 5); Amount of disease grading, disease G ([7]; 100 ppm spray and drench): 3 (0 to 5); Amount of disease grading, disease C ([11]; 100 ppm spray and drench): 3 (0 to 5); Amount of disease grading, disease E ([14]; 100 ppm spray and drench): 3 (0 to 5)
O=[N+]([O-])c1cc(Cl)cc([N+](=O)[O-])c1Nc1c(Cl)c(F)nc(F)c1Cl [Compound 29, 3,5-Dichloro-2,6-difluoro-4(4-chloro-2,6-dinitroanilino)pyridine] | 0 (key: O represents less than 30% kill; 1 represents 30 - 49% kill; 2 represents 60 - 90% kill; 3 represents over 90% kill; C indicates a chemosterilant effect.; A indicates an antifeeding effect.) | 3 (0 to 5) | 3 (0 to 5) | 3 (0 to 5) | 0 (key: O represents less than 30% kill; 1 represents 30 - 49% kill; 2 represents 60 - 90% kill; 3 represents over 90% kill; C indicates a chemosterilant effect.; A indicates an antifeeding effect.) | 3 (0 to 5) | 0 (O represents less than 30% kill) | 3 (3 represents over 90% kill) | 3 (0 to 5) | 0 (O represents less than 30% kill) | 3 (0 to 5) | 3 (3 represents over 90% kill) | 3 (0 to 5) | 3 (3 represents over 90% kill) | 0 (O represents less than 30% kill) | – | 3 (3 represents over 90% kill) | 3 (0 to 5) | 0 (O represents less than 30% kill) | 0 | Damage to plants, pre-emergence (Tomato): 3; Damage to plants, post-emergence (Lettuce): 0; Damage to plants, pre-emergence (Lettuce): 3; % Kill of slugs [16]: 50%; Damage to plants, post-emergence (Wheat): 0; Damage to plants, pre-emergence (Wheat): 3; Damage to plants, post-emergence (Maize): 0; Damage to plants, pre-emergence (Maize): 0; Amount of disease grading, disease C (Table 4) ([11]; 100 ppm spray and drench): 3 (0 to 5)
N#Cc1cc([N+](=O)[O-])c(Nc2c(Cl)c(F)nc(F)c2Cl)c([N+](=O)[O-])c1 [Compound 34, 4(4-Cyano-2,6-dinitroanilino)-3,5-dichloro-2,6-difluoropyridine] | 2 (key: O represents less than 30% kill; 1 represents 30 - 49% kill; 2 represents 60 - 90% kill; 3 represents over 90% kill; C indicates a chemosterilant effect.; A indicates an antifeeding effect.) | 2 (6 to 25) | 3 (0 to 5) | 0 (61 to 100) | 0 (key: O represents less than 30% kill; 1 represents 30 - 49% kill; 2 represents 60 - 90% kill; 3 represents over 90% kill; C indicates a chemosterilant effect.; A indicates an antifeeding effect.) | 3 (0 to 5) | 0 (O represents less than 30% kill) | 3 (3 represents over 90% kill) | 2 (6 to 25) | 0 (O represents less than 30% kill) | 3 (0 to 5) | 0 (O represents less than 30% kill) | 0 (61 to 100) | 3 (3 represents over 90% kill) | – | 3 (3 represents over 90% kill) | 3 (3 represents over 90% kill) | 3 (0 to 5) | – | 0 | Amount of disease grading, disease B (Table 4) ([17]; 100 ppm spray and drench): 3 (0 to 5); Damage to plants, pre-emergence (Tomato): 2; Damage to plants, post-emergence (Lettuce): 0; Damage to plants, pre-emergence (Lettuce): 3; % Kill of slugs [16]: 100%; Activity relative to lindane [18]: 5; Damage to plants, post-emergence (Wheat): 0; Damage to plants, pre-emergence (Wheat): 3; Damage to plants, post-emergence (Maize): 0; Damage to plants, pre-emergence (Maize): 3; Amount of disease grading, disease C (Table 4) ([11]; 100 ppm spray and drench): 3 (0 to 5)
Fc1nc(F)c(Cl)c(Nc2c(Cl)cccc2Cl)c1Cl [Compound 3, 3,5-Dichloro-2,6-difluoro-4(2,6-dichloroanilino)pyridine] | 0 (key: O represents less than 30% kill; 1 represents 30 - 49% kill; 2 represents 60 - 90% kill; 3 represents over 90% kill; C indicates a chemosterilant effect.; A indicates an antifeeding effect.) | – | – | – | 0 (key: O represents less than 30% kill; 1 represents 30 - 49% kill; 2 represents 60 - 90% kill; 3 represents over 90% kill; C indicates a chemosterilant effect.; A indicates an antifeeding effect.) | – | 0 (O represents less than 30% kill) | 0 (O represents less than 30% kill) | – | 0 (O represents less than 30% kill) | – | 0 (O represents less than 30% kill) | – | 0 (O represents less than 30% kill) | 0 (O represents less than 30% kill) | 2 (2 represents 60 - 90% kill) | 0 (O represents less than 30% kill) | – | 2 (2 represents 60 - 90% kill) | – | Amount of disease grading, disease D (Uncinula necator (vine); [19]): 3 (0 to 5); Amount of disease grading, disease B [17, 19]: 0 (61 to 100); Amount of disease grading, disease A [6, 19]: 0 (61 to 100); Amount of disease grading, disease G [7, 19]: 0 (61 to 100); Amount of disease grading, disease C [11, 19]: 2 (6 to 25); Amount of disease grading, disease E [14, 19]: 0 (61 to 100)
